# B1: Streptococcus pneumoniae pyruvate kinase (enzyme)
# chain: MNKRVKIVATLGPAVEIRGGKKFGEDGYWGEKLDVEASAKNIAKLIEAGANTFRFNFSHGDHQEQGERMATVKLAEKIAGKKVGFLLDTKGPEIRTELFEGEAKEYSYKTGEKIRVATKQGIKSTREVIALNVAGALDIYDDVEVGRQVLVDDGKLGLRVVAKDDATREFEVEVENDGIIAKQKGVNIPNTKIPFPALAERDNDDIRFGLEQGINFIAISFVRTAKDVNEVRAICEETGNGHVQLFAKIENQQGIDNLDEIIEAADGIMIARGDMGIEVPFEMVPVYQKMIIKKVNAAGKVVITATNMLETMTEKPRATRSEVSDVFNAVIDGTDATMLSGESANGKYPLESVTTMATIDKNAQALLNEYGRLDSDSFERNSKTEVMASAVKDATSSMDIKLVVTLTKTGHTARLISKYRPNADILALTFDELTERGLMLNWGVIPMLTDAPSSTDDMFEIAERKAVEAGLVESGDDIVIVAGVPVGEAVRTNTMRIRTVR
# notes: pyruvate kinase (PYK) of Streptococcus pneumoniae, wild type; the strain of the cloned gene and the construct limits are told only in the Supporting information; Homotetramer in the crystal structures; also called SpPYK; PYK
# Key:
# SpPYK [1] = molecular target: T1, SpPYK (Streptococcus pneumoniae, UniProt Q8DQ84); test: X-ray crystal structure (FBP, PEP/FBP at […] Å, oxalate/FBP); details: allosteric activator; effector binding site in the C domain
# T1 construct: gene pykF; recombinant, E. coli BL21(DE3) derivative, His60 Ni resin (tag details in supplement); homotetramer; single pyk gene
# SpPYK [2] = molecular target: T1, SpPYK; test: lactate dehydrogenase coupled assay, NADH absorbance at […] nm; assay type: biochemical; details: allosteric activator (modest), 2 mM G6P; PEP varied, 3 mM ADP, pH 7.5, 25 °C
# SpPYK [3] = molecular target: T1, SpPYK; test: X-ray crystal structure (PEP; PEP/FBP at […] Å); assay type: binding; details: catalytic site, Mg2+ and K+
# SpPYK [4] = molecular target: T1, SpPYK; test: X-ray crystal structure (oxalate; oxalate/FBP); assay type: binding; details: catalytic site; enolpyruvate analog; weak density for a second oxalate in the effector site
# C=C(OP(=O)(O)O)C(=O)O = test: purified protein; details: 3 mM ADP, 10 mM MgCl2, 100 mM KCl, 20 mM HEPES pH 7.5, 25 °C, no effector, Hill coefficient 1.88 ± 0.10
# [5] = tested on: Nc1ncnc2c1ncn2[C@@H]1O[C@H](COP(=O)(O)OP(=O)(O)O)[C@@H](O)[C@H]1O; test: purified protein; details: 3 mM PEP, 10 mM MgCl2, 100 mM KCl, 20 mM HEPES pH 7.5, 25 °C, Hill coefficient 1.47 ± 0.07
# [6] = molecular target: the molecule itself; test: crystal structure; X-ray crystal structures of SpPYK in six states (apo, oxalate, oxalate/FBP, FBP, PEP, PEP/FBP); vapor diffusion at 25 °C, 15 to 20 mg/ml protein in 20 mM HEPES pH 7.5, 150 mM NaCl, for the ligand-bound forms with 100 mM KCl, 20 mM MgCl2 and 5-20 mM ligand(s); protomers of the tetramer
molecule,measurement,setting,value
"O=P(O)(O)OC[C@H]1OC(O)(COP(=O)(O)O)[C@@H](O)[C@@H]1O (stereo partly shown) [FBP, fructose 1,6-bisphosphate]","X-ray crystal structure (FBP, PEP/FBP at 1.8 Å, oxalate/FBP)",SpPYK [1],FBP is found at the effector binding site in the C domain
"O=P(O)(O)OC[C@H]1OC(O)[C@H](O)[C@@H](O)[C@@H]1O (stereo partly shown) [G6P, glucose 6-phosphate]","lactate dehydrogenase coupled assay, NADH absorbance at 340 nm",SpPYK [2],only a modest activation effect was observed upon G6P addition
"C=C(OP(=O)(O)O)C(=O)O [PEP, phosphoenolpyruvate]",X-ray crystal structure (PEP; PEP/FBP at 1.8 Å),SpPYK [3],The bound PEP or oxalate is seen in the catalytic site
O=C(O)C(=O)O [oxalate],X-ray crystal structure (oxalate; oxalate/FBP),SpPYK [4],The bound PEP or oxalate is seen in the catalytic site
SpPYK (Streptococcus pneumoniae R6),K0.5,C=C(OP(=O)(O)O)C(=O)O,1.36 ± 0.06 mM
same,K0.5,[5],1.09 ± 0.06 mM
B1,stoichiometry N,[6],4
